From article PMC8887546, “Design and Synthesis of Brain Penetrant Glycopeptide Analogues of PACAP With Neuroprotective Potential for Traumatic Brain Injury and Parkinsonism” (Frontiers in drug discovery, 2022)

Legend:
[1] = tested on: C57BL/6 mice, diffuse TBI; assay: Rotarod after TBI; type: in vivo, mouse; details: 10 mg/kg i.p. 30 min prior to TBI, 2, 5 and 7 DPI
Experimental: (§1) 30 min prior to TBI or sham injury, mice were randomly assigned to a therapeutic group and received an intraperitoneal injection of 2LS80Mel (10 mg/kg) or sterile saline (0.25 ml). Groups were as follows: TBI-2LS80Mel n = 17; TBI-vehicle n = 17; sham n = 22 (vehicle n = 11, 2LS80Mel n = 11).
(§2) For injury induction 24 h post-surgery, mice were re-anesthetized with 5% isoflurane delivered for 3 min. The cap was removed from the injury-hub assembly and the dura was visually inspected through the hub to ensure it was intact with no debris. […] Injured mice were monitored for presence of a forearm fencing response and righting reflex times were recorded as indicators of injury severity ([Hosseini and Lifshitz, 2009]). […] After spontaneously righting, mice were placed in a heated recovery cage and monitored until they were ambulatory (approximately 5–15 min) before being returned to their piezoelectric sleep cage (see below). […]
Sensorimotor function was assessed using the Rotor-Rod system (San Diego Instruments) as we have previously published ([Rowe et al., 2018]). […] Following acclimation, mice were trained over three consecutive days prior to surgery/injury and the last training session was recorded as baseline. […]

[2] = tested on: C57BL/6 mice, diffuse TBI; assay: Neurological severity score after TBI; type: in vivo, mouse; details: 10 mg/kg i.p. 30 min prior to TBI, 2, 5 and 7 DPI
Experimental: as §1, §2
Neurological impairments were assessed at 2, 5, and 7 DPI using an 8-point NSS paradigm adapted from those previously used in experimental models of TBI and previously reported by our lab ([Chen et al., 1996]; [Semple et al., 2010]; [Pleasant et al., 2011]; [Ziebell et al., 2011]; [Rowe et al., 2018]; [Rowe et al., 2019]). […]

CC[C@H](C)[C@H](NC(=O)CNC(=O)[C@H](CC(=O)O)NC(=O)[C@H](CO)NC(=O)[C@@H](N)Cc1c[nH]cn1)C(=O)N[C@@H](Cc1ccccc1)C(=O)N[C@H](C(=O)N[C@@H](CC(=O)O)C(=O)N[C@@H](CO)C(=O)N[C@@H](Cc1ccc(O)cc1)C(=O)N[C@@H](CO)C(=O)N[C@@H](CCCNC(=N)N)C(=O)N[C@@H](Cc1ccc(O)cc1)C(=O)N[C@@H](CCCNC(=N)N)C(=O)N[C@@H](CCCCN)C(=O)N[C@@H](CCC(N)=O)C(=O)N[C@@H](CC(C)C)C(=O)N[C@@H](C)C(=O)N[C@H](C(=O)N[C@@H](CCCCN)C(=O)N[C@@H](CCCCN)C(=O)N[C@@H](Cc1ccc(O)cc1)C(=O)N[C@@H](CC(C)C)C(=O)N[C@@H](C)C(=O)N[C@@H](C)C(=O)N[C@H](C(=O)N[C@@H](CC(C)C)C(=O)N[C@@H](CO[C@@H]1O[C@H](CO[C@H]2O[C@H](CO)[C@H](O)[C@H](O)[C@H]2O)[C@@H](O)[C@H](O)[C@H]1O)C(N)=O)C(C)C)C(C)C)[C@@H](C)O [Compound 2LS80Mel]
Rotarod latency to fall [1]: comparable to uninjured shams at all time points post-injury
Neurological severity score (sensorimotor deficits) [2]: deficits were prevented
